Laboratory results reported in PubChem BioAssay (NCI).
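1) Cells in 96-well plates. 2) Compound, 48 h, 5 concentrations. 3) Linear interpolation between surrounding doses. 4) Unreached endpoint = highest concentration. The concentration for 50% growth inhibition is given as GI50. The concentration for full growth arrest is given as TGI.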

Columns and labels:
Assay in all cases: NCI-60 cell line screen, 48 h
HT29 colon = test system: HT29 colon
SN12C renal = test system: SN12C renal
SW-620 colon = test system: SW-620 colon
M14 melanoma = test system: M14 melanoma
OVCAR-4 ovarian = test system: OVCAR-4 ovarian
NCI-H522 lung = test system: NCI-H522 lung
SK-MEL-5 melanoma = test system: SK-MEL-5 melanoma
SR leukemia = test system: SR leukemia
SF-268 CNS = test system: SF-268 CNS
SK-MEL-28 melanoma = test system: SK-MEL-28 melanoma

SMILES | TGI (HT29 colon) | TGI (SN12C renal) | TGI (SW-620 colon) | TGI (M14 melanoma) | TGI (OVCAR-4 ovarian) | TGI (NCI-H522 lung) | TGI (SK-MEL-5 melanoma) | TGI (SR leukemia) | TGI (SF-268 CNS) | TGI (SK-MEL-28 melanoma) | GI50 (HT29 colon) | GI50 (SN12C renal) | GI50 (SW-620 colon) | GI50 (M14 melanoma) | GI50 (OVCAR-4 ovarian) | GI50 (SK-MEL-28 melanoma) | GI50 (NCI-H522 lung) | GI50 (SK-MEL-5 melanoma) | GI50 (SF-268 CNS) | GI50 (SR leukemia)
Nn1c(N=Nc2c(O)[nH]c3c(Cl)cc(Cl)cc23)n[nH]c1=S | > 100 µM | > 100 µM | > 100 µM | > 100 µM | > 100 µM | > 100 µM | > 100 µM | > 100 µM | > 100 µM |  |  |  |  |  |  |  |  |  |  | 
Cc1cccc(C(C)(C)C)c1NC(=O)CC1Sc2ccccc2NC1=O (centres undefined) | > 100 µM | > 100 µM | 32.6 µM | > 100 µM | > 100 µM | > 100 µM | > 100 µM |  | > 100 µM | > 100 µM |  |  |  |  |  |  |  |  |  | 
NC(=O)c1cccc([C@@H]2O[C@H](CO)[C@@H](O)[C@H]2O)c1 | 99 µM | 80 µM | 42.8 µM | 12.4 µM | 19.7 µM | 10.2 µM | 53.2 µM | > 82.2 µM | 26.6 µM | 29.6 µM |  |  |  |  |  |  |  |  |  | 
O=[N+]([O-])c1cccc(C2=NOC3C4CCC(C4)C23)c1 (centres undefined) | > 100 µM | > 100 µM | > 100 µM | > 100 µM | > 100 µM | > 100 µM | > 100 µM | > 100 µM | > 100 µM | > 100 µM |  |  |  |  |  |  |  |  |  | 
O=C1OC(OCC#CCOC2OC(=O)C(Cl)=C2Cl)C(Cl)=C1Cl (centres undefined) | 18.1 µM | 32.5 µM | 18.4 µM | 23.9 µM |  | 3.72 µM | 43.4 µM | 4.99 µM | 46.8 µM | 30.1 µM |  |  |  |  |  |  |  |  |  | 
ClCc1ccc(Cn2cnc3c(Cl)nc(Cl)nc32)cc1 | > 100 µM | 20.8 µM | 17.3 µM | 24.1 µM | 18.8 µM | 46.8 µM | 19.2 µM |  | 5.42 µM | 6.99 µM | 2.9 µM | 7.18 µM | 3.79 µM | 10.8 µM | 4.91 µM | 2.69 µM | 22.4 µM | 6.49 µM | 2.51 µM | 
COc1ccc2nc(NC(=O)C(=O)C(C#N)c3ccc(Cl)c(Cl)c3)sc2c1 (centres undefined) | > 100 µM | > 100 µM | > 100 µM | > 100 µM | > 100 µM | > 100 µM | > 100 µM |  | > 100 µM | > 100 µM |  |  |  |  |  |  |  |  |  | 
Cc1cccc2nc3cccc(C(=O)NCCN(C)C)c3nc12 | 5.44 µM | 3.15 µM | 11.2 µM | 2.36 µM | 4.84 µM |  | 1.97 µM |  | 9.2 µM | 2.93 µM |  |  |  |  |  |  |  |  |  | 
COC(=O)C1=C(c2ccc3c(c2)OCO3)OC(c2cc(OC)c(OC)c(OC)c2)C1 (centres undefined) | 4.63 µM | > 100 µM | > 100 µM | 84.1 µM | > 100 µM |  | 60.3 µM | > 100 µM | > 100 µM | > 100 µM |  |  |  |  |  |  |  |  |  | 
CCOC(=O)C1=C(Nc2ccc(Cl)c(Cl)c2)OC/C1=N\NS(=O)(=O)c1ccc(C)cc1 |  | > 100 µM | > 100 µM | > 100 µM | > 100 µM | 74.8 µM | > 100 µM |  | > 100 µM | > 100 µM |  |  |  |  |  |  |  |  |  | 
Cc1cc(N(CCC#N)CCC#N)ccc1C=Nc1ccc(C(=O)NN2C(=O)/C(=C/c3ccc(N(CCC#N)CCC#N)cc3)N=C2c2cc([N+](=O)[O-])ccc2Cl)cc1 | > 100 µM | > 100 µM | > 100 µM | > 100 µM | > 100 µM |  | > 100 µM |  | > 100 µM | > 100 µM |  |  |  |  |  |  |  |  |  | 
O=C(CC1C(=O)Nc2ccccc2S1=O)Nc1ccc(Cl)cc1 (centres undefined) | > 100 µM | > 100 µM | > 100 µM | > 100 µM | > 100 µM | > 100 µM |  | > 100 µM | > 100 µM | > 100 µM |  |  |  |  |  |  |  |  |  | 
COc1ccc(Nc2cc(C)nc(N3CCN(c4ccnc5cc(Cl)ccc45)CC3)n2)cc1 | 8.11 µM | > 100 µM | 13.2 µM | 5.32 µM | > 100 µM | 5.27 µM | 3.35 µM | > 100 µM | > 100 µM |  | 2.83 µM | 2.8 µM | 2.73 µM | 1.75 µM | 1.76 µM |  | 2.02 µM | 1.67 µM | 4.7 µM | 2.68 µM
CNC(=O)OCC1C2=C(C(=O)C(C)=C(N)C2=O)N2CC3C(N3C)C12OC (centres undefined) | 34.7 µM | > 100 µM | 24.2 µM | > 100 µM | 33 µM | 19.2 µM | 23.8 µM | > 100 µM |  | > 100 µM |  |  |  |  |  |  |  |  |  | 
C/C=C(\C)C(=O)N[C@H]1C(O)C[C@]2(C)C3CC[C@@]4(C)C(CC[C@@H]4C(C)N(C)C)C3CCC2C1O (some centres undefined) | 5.18 µM | 37.9 µM | 6.06 µM | 3.88 µM | > 100 µM | > 43.7 µM | 3.46 µM |  | 8.94 µM | 3.83 µM | 1.4 µM | 8.47 µM | 2.31 µM | 2.02 µM | 8.52 µM | 2.04 µM | 11.2 µM | 1.65 µM | 2.8 µM | 
CC1(C)OC(=O)C=C([O-])O1.CC1(C)OC(=O)C=C([O-])O1.CC[O-].CC[O-].[Ti+4] | > 100 µM |  | > 100 µM | > 100 µM | > 100 µM | > 100 µM | > 100 µM | > 100 µM | > 100 µM | > 100 µM | > 100 µM |  | > 100 µM | > 100 µM | > 100 µM | > 100 µM | > 100 µM | > 100 µM | > 100 µM | > 100 µM
Cc1ccccc1-n1c(C)nc(-c2ccccc2)cc1=O | > 100 µM | > 100 µM | > 100 µM | > 100 µM | > 100 µM | > 100 µM | > 100 µM |  | > 100 µM | > 100 µM |  |  |  |  |  |  |  |  |  | 
O=C1C=CC(CC(=O)c2ccc3ccccc3c2)O1 (centres undefined) | 33.1 µM | 36 µM | 49.5 µM | 93.9 µM | 63.7 µM |  | > 100 µM | 83.1 µM | 39.9 µM | > 100 µM |  |  |  |  |  |  |  |  |  | 
N#CC1=C(Cl)NC(Cl)=C(C#N)C1c1c(Cl)cccc1Cl | > 100 µM | 79.5 µM | 27 µM | > 100 µM |  | 38.1 µM | 39.1 µM | > 100 µM | 99.6 µM | > 100 µM |  |  |  |  |  |  |  |  |  | 
Cc1cccc(Nc2cnc(N)nc2N)c1 | > 100 µM | > 100 µM | > 100 µM | > 100 µM | > 100 µM | > 100 µM | > 100 µM |  |  | > 100 µM |  |  |  |  |  |  |  |  |  | 
